From patent publication US10131643B2, “Tizoxanide carbamate and pharmaceutical use thereof” (priority 2013, dated 2018)
Converted amounts (≈) assume the structure as drawn.

Legend:
[1] = oral administration in mice, in words; for Parameters such as Tmax, Cmax, MRT, AUC and relative bioavailability compared with nitazoxanide: calculated as tizoxanide
Helicobacter pylori = settings: 103 strains of Helicobacter pylori; cited from earlier work
[2] = rat, in vivo, po
[3] = in vivo, cited from earlier work
PR8 influenza virus = PR8 influenza virus in MDCK cells; cited from earlier work
[4] = test system: Mycobacterium tuberculosis; settings: cited from earlier work

| Structure (SMILES) | Parameters such as Tmax, Cmax, MRT, AUC and relative bioavailability compared with nitazoxanide [1] | Oral absorption compared with the control agent nitazoxanide (NTZ) [1] | also measured |
| --- | --- | --- | --- |
| O=C(Nc1ncc([N+](=O)[O-])s1)c1ccccc1OC(=O)N1CCCCC1 [Compound 3] | significantly superior | much better | – |
| CN(C)C(=O)Oc1ccccc1C(=O)Nc1ncc([N+](=O)[O-])s1 [Compound 6] | significantly superior | much better | – |
| O=C(Nc1ncc([N+](=O)[O-])s1)c1ccccc1OC(=O)N1CCCC1 [Compound 4, 2-((5-nitrothiazol-2-yl)carbamoyl)phenyl-pyrrolidine-1-carboxylate] | significantly superior | much better | – |
| CN1CCN(C(=O)Oc2ccccc2C(=O)Nc2ncc([N+](=O)[O-])s2)CC1 [Compound 2, 2-(5-nitrothiazol-2-yl-carbamoyl)phenyl-4-methylpiperazine-1-carboxylate] | significantly superior | faster | – |
| CCOC(=O)C1CCN(C(=O)Oc2ccccc2C(=O)Nc2ncc([N+](=O)[O-])s2)CC1 [Compound 5] | comparable | faster | – |
| CC(=O)Oc1ccccc1C(=O)Nc1ncc([N+](=O)[O-])s1 [NTZ, 2-acetoxy-N-(5-nitro-2-thiazolyl)benzamide] | – | – | 50% minimal inhibitory concentration (MIC50) (Helicobacter pylori): 1 mg/L; 90% minimal inhibitory concentration (MIC90) (Helicobacter pylori): 4 mg/L; Absolute bioavailability [2]: 7.2%; Detection of the parent drug in plasma, urine, bile and feces ([3]; po): not detectable; Part of the oral dose excreted by feces [3]: about ⅔; Part of the oral dose excreted by urine [3]: about ⅓; EC50 (PR8 influenza virus): 1 mg/L (≈ 3.25 µM); EC90 (PR8 influenza virus): 7 mg/L (≈ 22.8 µM); Minimal inhibitory concentration (MIC), median value [4]: 16 mg/L (≈ 52.1 µM) |
| O=C(Nc1ncc([N+](=O)[O-])s1)c1ccccc1OC(=O)N1CCOCC1 [Compound 1, 2-(5-nitrothiazol-2-yl-carbamoyl)phenylmorpholine-4-carboxylate] | significantly superior | much better | – |
| O=C(Nc1ncc([N+](=O)[O-])s1)c1ccccc1O [tizoxanide] | – | – | 50% minimal inhibitory concentration (MIC50) (Helicobacter pylori): 1 mg/L; 90% minimal inhibitory concentration (MIC90) (Helicobacter pylori): 4 mg/L |
